# Several values for one entry are separate records, joined by “and”; a condition that tells them apart may be missing. Identical values can stand only once.
# Tests used:
# [1] = tested on: WI-38 normal fibroblast cells; assay: in vitro; conditions: ratio of WI38 IC50 to cancer cell IC50 values
# Protocol: (§1) A normal fibroblast-like fetal lung cell line (WI-38) was used to further investigate the therapeutic safety of the newly synthesized hybrids and evaluate their selective cytotoxicity toward normal and tumor cells.[33,77]
# (§2) The antitumor experiment was conducted on 59 human tumor cell lines derived from nine different human tissues, following the procedure of the Drug Evaluation Branch at the NCI, Bethesda, MD.[33]
# in vitro = conditions: human
# Protocol: as §1, §2
# [2] = tested on: breast adenocarcinoma MCF-7; assay: cells; conditions: Homo sapiens, MCF7, 48 h, read-out: In vitro cytotoxicity IC50, MCF-7; MTT, 48 h drug exposure; mean ± SD of three experiments
# leukemia HL-60 = assay: cells; conditions: Homo sapiens, HL-60, 48 h, read-out: In vitro cytotoxicity IC50
# Protocol: as §2
# MDA-MB-231 = assay: cells; conditions: Homo sapiens, MDA-MB-231, 48 h, read-out: In vitro cytotoxicity IC50
# Protocol: as §2
# A549/ATCC = assay: NCI single-dose GI%, NSC lung; format: cell-based, human; conditions: 10.0 μM in one dose
# EKVX = assay: NCI single-dose GI%, NSC lung; format: cell-based, human; conditions: 10.0 μM in one dose
# MDA-MB-231/ATCC = assay: NCI single-dose GI%, breast; format: cell-based, human; conditions: 10.0 μM in one dose
# NCI-H522 = assay: NCI single-dose GI%, NSC lung; format: cell-based, human; conditions: 10.0 μM in one dose
# RPMI-8226 = assay: NCI single-dose GI%, leukemia; format: cell-based, human; conditions: RPMI-8226, leukemia; 10.0 μM in one dose
# 59 cancer cell lines = assay: NCI 59 cancer cell line panel, single dose; format: cell-based, human; conditions: 10 μM single dose; for MG% (mean growth percent): 59 cell lines
# UO-31 = assay: NCI single-dose GI%, renal; format: cell-based, human; conditions: UO-31, renal; 10.0 μM in one dose
# HOP-62 = assay: NCI single-dose GI%, NSC lung; format: cell-based, human; conditions: HOP-62, NSC lung; 10.0 μM in one dose
# MDA-MB-468 = assay: NCI single-dose GI%, breast; format: cell-based, human; conditions: MDA-MB-468, breast; 10.0 μM in one dose
# MOLT-4 = assay: NCI single-dose GI%, leukemia; format: cell-based, human; conditions: MOLT-4, leukemia; 10.0 μM in one dose
# HCT-116 = assay: NCI single-dose GI%, colon; format: cell-based, human; conditions: HCT-116, colon; 10.0 μM in one dose
# SNB-75 = assay: NCI single-dose GI%, CNS; format: cell-based, human; conditions: SNB-75, CNS; 10.0 μM in one dose
# CAKI-1 = assay: NCI single-dose GI%, renal; format: cell-based, human; conditions: CAKI-1, renal; 10.0 μM in one dose
# HL-60(TB) = assay: NCI single-dose GI%, leukemia; format: cell-based, human; conditions: 10.0 μM in one dose
# HT29 = assay: NCI single-dose GI%, colon; format: cell-based, human; conditions: 10.0 μM in one dose
# MCF7 = assay: NCI single-dose GI%, breast; format: cell-based, human; conditions: 10.0 μM in one dose
# K-562 = assay: NCI single-dose GI%, leukemia; format: cell-based, human; conditions: K-562, leukemia; 10.0 μM in one dose
# T-47D = assay: NCI single-dose GI%, breast; format: cell-based, human; conditions: 10.0 μM in one dose
# UACC-62 = assay: NCI single-dose GI%, melanoma; format: cell-based, human; conditions: UACC-62, melanoma; 10.0 μM in one dose
# NCI-H226 = assay: NCI single-dose GI%, NSC lung; format: cell-based, human; conditions: 10.0 μM in one dose
# BT-549 = assay: NCI single-dose GI%, breast; format: cell-based, human; conditions: BT-549, breast; 10.0 μM in one dose
# SK-OV-3 = assay: NCI single-dose GI%, ovarian; format: cell-based, human; conditions: SK-OV-3, ovarian; 10.0 μM in one dose
# PC-3 = assay: NCI single-dose GI%, prostate; format: cell-based, human; conditions: PC-3, prostate; 10.0 μM in one dose
# UACC-257 = assay: NCI single-dose GI%, melanoma; format: cell-based, human; conditions: UACC-257, melanoma; 10.0 μM in one dose
# SK-MEL-5 = assay: NCI single-dose GI%, melanoma; format: cell-based, human; conditions: SK-MEL-5, melanoma; 10.0 μM in one dose
# SR = assay: NCI single-dose GI%, leukemia; format: cell-based, human; conditions: 10.0 μM in one dose
melting point [°C],SMILES,GI% (A549/ATCC) [%],GI% (EKVX) [%],GI% (NCI-H522) [%],GI% (RPMI-8226) [%],PCE (positive cytotoxic effect: ratio of cell lines with growth inhibition >10% to total cell lines) (59 cancer cell lines),MG% (mean growth percent) (59 cancer cell lines) [%],GI% (UO-31) [%],GI% (HOP-62) [%],GI% (MOLT-4) [%],GI% (SNB-75) [%],GI% (CAKI-1) [%],GI% (HL-60(TB)) [%],GI% (HT29) [%],GI% (MCF7) [%],GI% (K-562) [%],GI% (T-47D) [%],GI% (NCI-H226) [%],GI% (BT-549) [%],GI% (UACC-257) [%],other results
,"CN(C)C/C=C/C(=O)Nc1cc2c(Nc3ccc(F)c(Cl)c3)ncnc2cc1O[C@H]1CCOC1 [Afatinib, reference compound]",,,,,,,,,,,,,,,,,,,,"Mean tumor selectivity index (WI38/HL60, MCF7, and MDA-MB-231) [1]: 5.93; IC50 at 48 h (in vitro): 44 ± 1.9 µM; IC50 [2]: 7.91 ± 0.66 µM; IC50 (leukemia HL-60): 6.5 ± 0.77 µM; IC50 (MDA-MB-231): 8.05 ± 0.72 µM"
321 to 323,"CS(=O)(=O)c1ccc(C(=O)N2N=C(c3ccccc3)CC2c2ccc(Cl)cc2)cc1 (centres unmarked) [Compound 18b, (5-(4-Chlorophenyl)-3-phenyl-4,5-dihydro-1H-pyrazol-1-yl)(4-(methylsulfonyl)phenyl)methanone]",13,21,27,11,22/59,92.03,32,29,17,13,18,22,13,13,32,31,15,14,,GI% (MDA-MB-231/ATCC): 11%; GI% (MDA-MB-468): 12%; GI% (HCT-116): 26%; GI% (UACC-62): 14%; GI% (SK-OV-3): 26%; GI% (PC-3): 22%
330 to 333,"CS(=O)(=O)c1ccc(C(=O)N2N=C(c3ccc(F)cc3)CC2c2ccc(F)cc2)cc1 (centres unmarked) [Compound 18e, (3,5-Bis(4-fluorophenyl)-4,5-dihydro-1H-pyrazol-1-yl)(4-(methylsulfonyl)phenyl)methanone]",,12,15,12,15/59,94.18,22,14,35,18,17,48,,13,29,17,12,,,GI% (HCT-116): 17%; GI% (PC-3): 15%
236 to 238,"COc1ccccc1C1CC(c2ccccc2)=NN1C(=O)c1ccc(S(C)(=O)=O)cc1 (centres unmarked) [Compound 18i, (5-(2-Methoxyphenyl)-3-phenyl-4,5-dihydro-1H-pyrazol-1-yl)(4-(methylsulfonyl)phenyl)methanone]",35,12,29,,≤ 12/59 and 12/59,96.46,28,20,28,,23,46,17,,,17,13,,36,
258 to 260,"COc1ccc(C2CC(c3ccccc3)=NN2C(=O)c2ccc(S(C)(=O)=O)cc2)cc1 (centres unmarked) [Compound 18j, (5-(4-Methoxyphenyl)-3-phenyl-4,5-dihydro-1H-pyrazol-1-yl)(4-(methylsulfonyl)phenyl)methanone]",24,12,14,,10/59,97.16,,,26,12,,35,,,13,16,11,,14,
226 to 228,"COc1ccc(C2=NN(C(=O)c3ccc(S(C)(=O)=O)cc3)C(c3ccccc3)C2)cc1 (centres unmarked) [Compound 18k, (3-(4-Methoxyphenyl)-5-phenyl-4,5-dihydro-1H-pyrazol-1-yl)(4-(methylsulfonyl)phenyl)methanone]",13,,35,11,≤ 12/59 and 12/59,97.49,15,,27,11,,18,20,,,,14,,,GI% (SK-MEL-5): 14%; GI% (MDA-MB-468): 16%; GI% (PC-3): 21%
198 to 200,"COc1ccc(C2=NN(C(=O)c3ccc(S(C)(=O)=O)cc3)C(c3ccc(OC)cc3)C2)cc1 (centres unmarked) [Compound 18l, (3,5-Bis(4-methoxyphenyl)-4,5-dihydro-1H-pyrazol-1-yl)(4-(methylsulfonyl)phenyl)methanone]",40,,34,,14/59,95.78,16,11,33,11,14,47,19,11,18,11,,13,45,
268 to 270,"COc1ccc(C2CC(c3ccc(OC)cc3OC)=NN2C(=O)c2ccc(S(C)(=O)=O)cc2)cc1 (centres unmarked) [Compound 18o, (3-(2,4-Dimethoxyphenyl)-5-(4-methoxyphenyl)-4,5-dihydro-1H-pyrazol-1-yl)(4-(methylsulfonyl)phenyl)methanone]",31,,43,,15/59,94.17,19,18,40,15,12,51,17,,32,18,,11,38,GI% (SK-MEL-5): 12%; GI% (SR): 11%
,"COc1cccc2c1C(=O)c1c(O)c3c(c(O)c1C2=O)C[C@@](O)(C(=O)CO)C[C@@H]3O[C@H]1C[C@H](N)[C@H](O)[C@H](C)O1 [DOX, doxorubicin, reference compound]",,,,,,,,,,,,,,,,,,,,"Mean tumor selectivity index (WI38/HL60, MCF7, and MDA-MB-231) [1]: 1.36; IC50 at 48 h (in vitro): 7.12 ± 0.7 µM; IC50 [2]: 4.77 ± 0.4 µM; IC50 (leukemia HL-60): 6.01 ± 0.2 µM; IC50 (MDA-MB-231): 5.1 ± 0.31 µM"
